pIC50: −log10 of the molar value. Where two headings read alike, the source gives them in different places.
Key:
[1] = tested on: ICAM-1 expression in HT-29 cells; experiment: Measurement of ICAM-1 expressing activity (TNFα-induced ICAM-1 expression, cell ELISA); type: cell-based; settings: Homo sapiens, Table 6, cell activity inhibition test by method (3), read-out: EVALUATION (IC50 class, inhibition of cell activity)
Experimental: Method 2: Measurement of ICAM-1 expressing activity
2.0 x 10^4 HT-29 cells (ATCC) were plated onto a 96-well plate, and the cells were cultured for 48 hours using a McCoy' 5A medium (GIBCO) containing 10% inactivated fetal calf serum. The culture medium was removed, a culture medium containing a compound to be evaluated (final DMSO concentration of 0.5%) was added, and this was incubated at 37°C for 30 minutes. Thirty ng/mL of human TNFα (GIBCO) was added, and this was incubated at 37°C for 4 hours. After washing once with a washing solution (PBS containing 0.05% Tween 20), ice-cooled methanol was added, and this was left on ice for 10 minutes and then fixed. After removing methanol, PBS containing 1% BSA was added, and blocking was performed by letting this stand at room temperature for 30 minutes. Anti-ICAM-1 antibody (Santa Cruz Biotechnology) was added, and this was left to stand at room temperature for 1 hour. After washing with the washing solution, POD-labeled secondary antibody was added, and this was left to stand at room temperature for 30 minutes. This was washed, 100 µL of 100 mM citric acid buffer (pH4.2) containing 1 mM TMBZ and 0.03% H2O2 was added, and this was reacted at room temperature for 15 minutes. The reaction was terminated with 100 µL of 2 N H2SO4, and the absorbance at 450 nm was measured using ARVO-HTS (Perkin Elmer).
When cells are stimulated with TNFα, IκBα is degraded after ubiquitination resulting in the activation of NFκB and the promotion of the expression of adhesion factor ICAM-1. Therefore, the suppression of ICAM-1 expression described above serves as an indicator to determine the effectiveness of the compound in the cells.

[2] = target: T1, IκBα ubiquitinating enzyme (SCF complex: ROC1, Cullin1, Skp1, His-TrCP1; with E1, UbcH5b) (Homo sapiens, UniProt P62877+P63208+Q13616+Q9Y297); experiment: Measurement of ubiquitinating enzyme activity (IκBα ubiquitination, time-resolved fluorescence with Eu(K)-labeled ubiquitin and XL665-labeled anti-GST antibody); type: biochemical
T1 construct: His (polyhistidine); made in house; host or cells: insect cells (baculovirus) for the SCF complex and His-E1; E. coli for His-UBCH5b
Method in brief: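 Human SCF complex with E1 and UbcH5b ubiquitinated GST-IκBα pre-phosphorylated by IKKβ (2 mM ATP, pH 7.4, 1 h, RT), with Eu(K)-ubiquitin, 30 min RT. Stopped with EDTA, XL665 anti-GST added for 2 h; 665/620 nm TR-FRET ratio. % inhibition versus no-compound control and no-SCF blank gave IC50.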

[3] = enzyme activity inhibition test, method (1), Table 5, read-out: EVALUATION

T1 sequence (Q9Y297 whole entry): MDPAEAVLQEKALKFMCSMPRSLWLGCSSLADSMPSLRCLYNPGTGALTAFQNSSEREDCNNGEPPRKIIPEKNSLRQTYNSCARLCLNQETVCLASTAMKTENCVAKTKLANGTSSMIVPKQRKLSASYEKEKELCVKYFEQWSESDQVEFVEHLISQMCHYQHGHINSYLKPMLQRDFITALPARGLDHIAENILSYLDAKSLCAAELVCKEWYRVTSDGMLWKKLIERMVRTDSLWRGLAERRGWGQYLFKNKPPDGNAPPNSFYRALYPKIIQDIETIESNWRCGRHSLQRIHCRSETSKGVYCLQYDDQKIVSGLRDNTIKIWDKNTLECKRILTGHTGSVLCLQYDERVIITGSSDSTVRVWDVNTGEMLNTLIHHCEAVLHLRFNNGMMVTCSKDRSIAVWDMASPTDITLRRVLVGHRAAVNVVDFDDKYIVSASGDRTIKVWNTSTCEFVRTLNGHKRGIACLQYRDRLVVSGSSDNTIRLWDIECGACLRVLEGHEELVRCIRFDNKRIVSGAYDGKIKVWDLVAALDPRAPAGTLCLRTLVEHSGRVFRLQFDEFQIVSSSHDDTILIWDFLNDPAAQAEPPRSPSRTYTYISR
T1 sequence (Q13616 whole entry): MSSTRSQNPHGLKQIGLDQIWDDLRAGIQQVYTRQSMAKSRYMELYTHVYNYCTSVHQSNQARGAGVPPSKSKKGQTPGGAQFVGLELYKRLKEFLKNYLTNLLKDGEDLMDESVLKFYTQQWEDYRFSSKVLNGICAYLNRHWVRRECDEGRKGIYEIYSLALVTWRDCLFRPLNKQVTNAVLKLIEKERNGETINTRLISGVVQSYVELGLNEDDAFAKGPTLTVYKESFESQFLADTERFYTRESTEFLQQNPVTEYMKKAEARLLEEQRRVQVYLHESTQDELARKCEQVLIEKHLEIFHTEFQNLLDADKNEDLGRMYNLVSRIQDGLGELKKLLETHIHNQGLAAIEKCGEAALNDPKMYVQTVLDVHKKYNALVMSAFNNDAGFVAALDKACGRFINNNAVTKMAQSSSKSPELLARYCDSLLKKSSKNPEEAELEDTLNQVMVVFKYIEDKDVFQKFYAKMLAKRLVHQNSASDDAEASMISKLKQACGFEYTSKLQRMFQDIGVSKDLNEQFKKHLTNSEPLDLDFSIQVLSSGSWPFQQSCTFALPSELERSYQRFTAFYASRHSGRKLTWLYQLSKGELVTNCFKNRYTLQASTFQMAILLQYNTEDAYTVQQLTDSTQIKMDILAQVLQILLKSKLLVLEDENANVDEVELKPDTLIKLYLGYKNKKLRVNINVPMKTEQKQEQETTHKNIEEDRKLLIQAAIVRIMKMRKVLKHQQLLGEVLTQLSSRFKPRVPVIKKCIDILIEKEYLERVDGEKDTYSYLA
T1 sequence (P63208 whole entry): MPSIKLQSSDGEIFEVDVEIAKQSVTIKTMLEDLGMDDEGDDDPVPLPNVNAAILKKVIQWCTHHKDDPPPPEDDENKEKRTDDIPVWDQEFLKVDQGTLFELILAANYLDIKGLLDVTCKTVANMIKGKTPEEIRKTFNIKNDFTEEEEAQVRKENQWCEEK
T1 sequence (P62877 whole entry): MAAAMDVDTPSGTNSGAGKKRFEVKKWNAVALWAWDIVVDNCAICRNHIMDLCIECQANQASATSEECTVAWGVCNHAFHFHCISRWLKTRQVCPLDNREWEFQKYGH

Row | Compound | pIC50 [1] | pIC50 [2, 3] | pIC50 [2] | pIC50 ([2]; read-out: EVALUATION, enzyme activity inhibition test, method (1), Table 5)
1 | CCCCC1=NN(c2ccc(C(=O)O)cc2)C(=O)/C1=C\c1ccc(N2CCN(C(=O)OC)CC2)cc1 [Compound 298] | 4.70 to 5.00 | > 5.00 |  | 
2 | COc1cc(/C=C2\C(=O)N(c3ccccc3)N=C2Cc2ccccc2)ccc1OCc1ccccc1 [Compound 24] | > 4.40 | 4.70 to 5.00 |  | 
3 | COC(=O)N1CCN(c2ccc(/C=C3\C(=O)N(c4ccccc4)N=C3c3ccoc3)cc2)CC1 [Compound 14] | > 4.40 | > 5.00 |  | 
4 | CC(=O)c1ccc(-c2ccc(/C=C3\C(=O)N(c4ccc(C(=O)O)cc4)N=C3C)o2)cc1 [Compound 502] | > 5.00 | > 5.00 |  | 
5 | CC1=NN(c2cccc(C(=O)N3CCC(O)CC3)c2)C(=O)/C1=C\c1ccc2[nH]ccc2c1 [Compound 373] | > 4.40 | > 5.00 |  | 
6 | CC1=NN(c2ccc(C(=O)O)cc2)C(=O)/C1=C\c1ccc(F)cc1 [Compound 351] | > 4.40 | 4.70 to 5.00 |  | 
7 | COc1ccc(C2=NN(c3ccccc3)C(=O)/C2=C\c2ccc3c(c2)OCCO3)cc1OC [Compound 37] | > 4.40 | 4.70 to 5.00 |  | 
8 | CC1=NN(c2cccc(C(=O)N3CCOCC3)c2)C(=O)/C1=C\c1ccc2c(c1)OCCO2 [Compound 411] | > 4.40 | > 5.00 |  | 
9 | COC(=O)N1CCN(c2ccc(C=C3C(=O)N(c4ccc(C(=O)O)cc4)N=C3c3cccnc3)cc2)CC1 [Compound 307] | > 4.40 |  | 4.70 to 5.00 | 
10 | O=C(O)c1ccc(N2N=C(C3CC3)/C(=C/c3ccc(-n4cccn4)cc3)C2=O)cc1 [Compound 322] | 4.70 to 5.00 | > 5.00 |  | 
11 | CCCCC1=NN(c2ccc(C(=O)O)cc2)C(=O)/C1=C\c1ccc(N2CCC(CO)CC2)cc1 [Compound 443] | 4.70 to 5.00 | > 5.00 |  | 
12 | O=C(O)c1ccc(N2N=C(c3ccoc3)/C(=C/c3ccc(CO)o3)C2=O)cc1 [Compound 247] | > 4.40 | > 5.00 |  | 
13 | COCCC1=NN(c2ccc(C(=O)O)cc2)C(=O)/C1=C\c1ccc(-c2ccccc2F)o1 [Compound 522] | > 5.00 | > 5.00 |  | 
14 | CC1=NN(c2ccc(C(=O)O)cc2)C(=O)/C1=C\c1ccc2c(ccn2Cc2c(C)noc2C)c1 [Compound 497] | 4.70 to 5.00 | > 5.00 |  | 
15 | COc1cc(/C=C2\C(=O)N(c3ccc(S(N)(=O)=O)cc3)N=C2C)ccc1OS(=O)(=O)c1ccc(C)cc1 [Compound 202] | > 4.40 | 4.70 to 5.00 |  | 
16 | COC(=O)c1ccc(COc2ccc(/C=C3\C(=O)N(c4ccc(S(N)(=O)=O)cc4)N=C3C)cc2OC)cc1 [Compound 120] | > 4.40 | > 5.00 |  | 
17 | O=C(O)c1ccc(N2N=C(c3ccoc3)/C(=C/c3ccc(N4CCCC4)cc3)C2=O)cc1 [Compound 248] | 4.70 to 5.00 | > 5.00 |  | 
18 | CC1=NN(c2ccc(S(N)(=O)=O)cc2)C(=O)/C1=C\c1ccc(Oc2ccccc2)cc1 [Compound 213] | > 5.00 | 4.70 to 5.00 |  | 
19 | CC1=NN(c2ccc(S(N)(=O)=O)cc2)C(=O)C1=Cc1ccc(NC(=O)c2ccccc2F)cc1 [Compound 225] | > 4.40 |  | > 5.00 | 
20 | CC1=NN(Cc2cccc(O)c2)C(=O)/C1=C\c1ccc(-c2ccccc2F)o1 [Compound 185] | 4.70 to 5.00 | > 5.00 |  | 
21 | CC1=NN(c2ccc(C(=O)O)cc2)C(=O)/C1=C\c1ccc(OCC(=O)N2CCCCC2)cc1 [Compound 533] | 4.70 to 5.00 | > 5.00 |  | 
22 | CC1=NN(c2ccc(S(N)(=O)=O)cc2)C(=O)C1=Cc1ccc(OCC(=O)Nc2ccccc2)cc1 [Compound 210] | 4.70 to 5.00 |  | > 5.00 | 
23 | CC1=NN(c2ccc(C(=O)O)cc2)C(=O)/C1=C\c1ccc(OCC(=O)Nc2ccccc2)cc1 [Compound 537] | > 4.40 | > 5.00 |  | 
24 | CC1=NN(c2ccc(S(N)(=O)=O)cc2)C(=O)C1=Cc1ccc(OCc2ccc([N+](=O)[O-])cc2)cc1 [Compound 216] | > 4.40 |  | > 5.00 | 
25 | CC1=NN(c2ccc(C(=O)O)cc2)C(=O)/C1=C\c1ccc(CO)o1 [Compound 255] | 4.70 to 5.00 | > 5.00 |  | 
26 | COCCC1=NN(c2ccc(C(=O)O)cc2)C(=O)/C1=C\c1ccc(-c2cnn(C)c2)o1 [Compound 512] | > 4.40 | 4.70 to 5.00 |  | 

Row | Compound | pIC50 [1] | pIC50 [2, 3] | pIC50 [2] | pIC50 ([2]; read-out: EVALUATION, enzyme activity inhibition test, method (1), Table 5)
27 | COC(=O)N1CCN(c2ccc(C=C3C(=O)N(c4ccc(C(=O)O)cc4)N=C3C3CC3)cc2)CC1 [Compound 315] | > 5.00 |  | > 5.00 | 
28 | O=C(O)c1ccc(N2N=C(c3ccoc3)/C(=C/c3ccc4[nH]ccc4c3)C2=O)cc1 [Compound 477] | > 4.40 | > 5.00 |  | 
29 | O=C(O)c1ccc(N2N=C(C3CC3)/C(=C/c3ccc4c(c3)OCCO4)C2=O)cc1 [Compound 319] | > 5.00 | > 5.00 |  | 
30 | CCCCC1=NN(c2ccccc2)C(=O)/C1=C\c1ccc(CO)o1 [Compound 56] | 4.70 to 5.00 | 4.70 to 5.00 |  | 
31 | CC1=NN(c2ccc(S(N)(=O)=O)cc2)C(=O)/C1=C\c1ccc2c(c1)OCCO2 [Compound 108] | > 4.40 | 4.70 to 5.00 |  | 
32 | CC1=NN(c2cccc(S(N)(=O)=O)c2)C(=O)C1=Cc1ccc(N2CCN(C(=O)OC(C)(C)C)CC2)cc1 [Compound 180] | > 4.40 |  | 4.70 to 5.00 | 
33 | CC1=NN(c2ccc(C(=O)O)cc2)C(=O)/C1=C\c1ccc(-n2cccn2)cc1 [Compound 261] | 4.70 to 5.00 | > 5.00 |  | 
34 | CC1=NN(c2ccc(C(=O)N3CCCC3CO)cc2)C(=O)/C1=C\c1ccc2c(c1)OCCO2 (centres unmarked) [Compound 410] | 4.70 to 5.00 | > 5.00 |  | 
35 | CC1=NN(c2cccc(C(=O)O)c2)C(=O)C1=Cc1ccc(N2CCN(c3ccccc3)CC2)cc1 [Compound 423] | > 4.40 | > 5.00 |  | 
36 | O=C(O)c1cccc(N2N=C(c3ccoc3)C(=Cc3ccc4[nH]ccc4c3)C2=O)c1 [Compound 475, 3-(3-Furan-3-yl-4-(1H-indol-ylmethylene)-5-oxo-4,5-dihydropyrazol-1-yl) benzoic acid] | 4.70 to 5.00 |  |  | > 5.00
37 | CC1=NN(c2cccc(C(=O)O)c2)C(=O)/C1=C\c1ccc(N2CCN(c3ccc(F)cc3)CC2)cc1 [Compound 449] | 4.70 to 5.00 | > 5.00 |  | 
38 | CC1=NN(c2ccc(C(=O)O)cc2)C(=O)/C1=C\c1ccc(Oc2ccccc2)cc1 [Compound 539] | > 5.00 | > 5.00 |  | 
39 | CCCCC1=NN(c2ccc(C(=O)O)cc2)C(=O)/C1=C\c1ccc(-n2cncn2)cc1 [Compound 306] | 4.70 to 5.00 | 4.70 to 5.00 |  | 
40 | COc1cc(/C=C2\C(=O)N(c3ccc(C(=O)O)cc3)N=C2Cc2ccccc2)ccc1O [Compound 263] | 4.70 to 5.00 | 4.70 to 5.00 |  | 
41 | O=C(O)c1ccc(N2N=C(C3CC3)/C(=C/c3ccc(N4CCCC4)cc3)C2=O)cc1 [Compound 317] | 4.70 to 5.00 | 4.70 to 5.00 |  | 
42 | CC1=NN(c2ccc(C(=O)O)cc2)C(=O)C1=Cc1ccc(OCC(=O)N(C)C)cc1 [Compound 535] | 4.70 to 5.00 |  | 4.70 to 5.00 | 
43 | CC1=NN(c2ccc(C(=O)O)cc2)C(=O)/C1=C\c1ccc2occc2c1 [Compound 370] | 4.70 to 5.00 | > 5.00 |  | 
44 | CCOC(=O)COc1ccc(/C=C2\C(=O)N(c3ccc(C(=O)O)cc3)N=C2C)cc1 [Compound 540] | > 4.40 | > 5.00 |  | 
45 | O=C(O)c1ccc(N2N=C(c3ccoc3)/C(=C/c3ccc(-c4cnn(Cc5ccccc5)c4)o3)C2=O)cc1 [Compound 492] | 4.70 to 5.00 | > 5.00 |  | 
46 | COc1cc(/C=C2\C(=O)N(c3ccc(C(=O)O)cc3)N=C2C2CC2)ccc1OCc1ccccc1 [Compound 314] | 4.70 to 5.00 | > 5.00 |  | 
47 | CC1=NN(c2ccc(S(N)(=O)=O)cc2)C(=O)C1=Cc1ccc(NC(=O)c2ccc(F)cc2)cc1 [Compound 226] | 4.70 to 5.00 |  | > 5.00 | 
48 | COc1cc(/C=C2\C(=O)N(c3ccccc3)N=C2c2ccoc2)ccc1O [Compound 11] | > 4.40 | > 5.00 |  | 
49 | CC1=NN(c2ccc(C(=O)O)cc2)C(=O)/C1=C\c1ccc(-c2ccccc2Cl)o1 [Compound 456] | > 5.00 | > 5.00 |  | 
50 | CC1=NN(c2ccc(S(N)(=O)=O)cc2)C(=O)/C1=C\c1ccc(N2CCCCC2)cc1 [Compound 126] | 4.70 to 5.00 | 4.70 to 5.00 |  | 
51 | CC1=NN(c2ccc(S(N)(=O)=O)cc2)C(=O)/C1=C\c1ccc(OCC(=O)O)cc1 [Compound 214] | > 4.40 | 4.70 to 5.00 |  | 
52 | COC(=O)N1CCN(c2ccc(C=C3C(=O)N(c4ccc(C(=O)O)cc4)N=C3C)cc2)CC1 [Compound 254] | > 4.40 |  | > 5.00 | 
